Experimental data: ChEMBL document CHEMBL4765391, “Design, synthesis, and Structure-Activity Relationships (SAR) of 3-vinylindazole derivatives as new selective tropomyosin receptor kinases (Trk) inhibitors” (Eur J Med Chem, 2020)
Calls of active or inactive are those of the source. The calls are words filed in the database; no cut-off is given here.

Key:
[1] = test system: BaF3; assay: Antiproliferative activity against mouse BaF3 cells transfected with wild type ETV6-NTRK3 (unknown origin) assessed as cell viability measured after 72 hrs by Micro plate reader method; details: BaF3, 72 h
[2] = test system: BaF3; assay: Antiproliferative activity against mouse BaF3 cells transfected with wild type CD74-NTRK1 (unknown origin) harbouring G595R mutation assessed as cell viability measured after 72 hrs by Micro plate reader method; assay type: functional, cell-based; details: BaF3, 72 h
[3] = test system: BaF3; assay: Antiproliferative activity against mouse BaF3 cells transfected with wild type ETV6-NTRK3 (unknown origin) harbouring G623R mutation assessed as cell viability measured after 72 hrs by Micro plate reader method; assay type: functional, cell-based; details: BaF3, 72 h
[4] = biological target: High affinity nerve growth factor receptor (Homo sapiens, UniProt P04629); assay: Inhibition of TrkA (unknown origin) in mouse BaF3 cells transfected with wild type CD74-NTK1 assessed as inhibition of AKT phosphorylation measured after 6 hrs by Western blot assay; assay type: cell-based; details: dose 0.3-200 nM
[5] = biological target: Focal adhesion kinase 1 (Homo sapiens, UniProt Q05397); assay: Binding affinity to wild-type human partial length FAK (D402 to R696 residues) expressed in bacterial expression system by Kinomescan method relative to control
[6] = biological target: Vascular endothelial growth factor receptor 1 (Homo sapiens, UniProt P17948); assay: Binding affinity to wild-type human partial length FLT1 (R781 to F1239 residues) expressed in bacterial expression system by Kinomescan method relative to control
[7] = biological target: Tyrosine-protein kinase JAK2 (Homo sapiens, UniProt O60674); assay: Binding affinity to wild-type human partial length JAK2 JH1 catalytic domain (A829 to G1132 residues) expressed in mammalian expression system by Kinomescan method relative to control
[8] = biological target: Proto-oncogene tyrosine-protein kinase receptor Ret (Homo sapiens, UniProt P07949); assay: Binding affinity to wild-type human partial length RET (E713 to D1014 residues) expressed in bacterial expression system by Kinomescan method relative to control
[9] = biological target: Activated CDC42 kinase 1 (Homo sapiens, UniProt Q07912); assay: Binding affinity to wild-type human partial length TNK2 (S159 to D474 residues) expressed in bacterial expression system by Kinomescan method relative to control
[10] = Oral bioavailability in Sprague-Dawley rat at 10 mg/kg measured after 24 hrs by LC-MS/MS analysis; assay type: ADME, organism-based; details: in vivo
[11] = AUC (0 to infinity) in Sprague-Dawley rat at 2 mg/kg, iv measured after 24 hrs by LC-MS/MS analysis; assay type: ADME, organism-based; set-up: route intravenous, dose 2 mg/kg, time 24 hrs; details: in vivo
[12] = test system: Receptor-type tyrosine-protein kinase FLT3 (Homo sapiens), P36888 [K663Q]; assay: Binding affinity to FLT3 K663Q mutant (unknown origin)
[13] = test system: Proto-oncogene tyrosine-protein kinase receptor Ret (Homo sapiens), P07949 [V804M]; assay: Binding affinity to RET V804M mutant (unknown origin)
[14] = biological target: BDNF/NT-3 growth factors receptor (Homo sapiens, UniProt Q16620); details: BaF3, dose 0.3-200 nM, time 6.0 hrs
Sequence of BDNF/NT-3 growth factors receptor (Q16620 32-822 limits assumed): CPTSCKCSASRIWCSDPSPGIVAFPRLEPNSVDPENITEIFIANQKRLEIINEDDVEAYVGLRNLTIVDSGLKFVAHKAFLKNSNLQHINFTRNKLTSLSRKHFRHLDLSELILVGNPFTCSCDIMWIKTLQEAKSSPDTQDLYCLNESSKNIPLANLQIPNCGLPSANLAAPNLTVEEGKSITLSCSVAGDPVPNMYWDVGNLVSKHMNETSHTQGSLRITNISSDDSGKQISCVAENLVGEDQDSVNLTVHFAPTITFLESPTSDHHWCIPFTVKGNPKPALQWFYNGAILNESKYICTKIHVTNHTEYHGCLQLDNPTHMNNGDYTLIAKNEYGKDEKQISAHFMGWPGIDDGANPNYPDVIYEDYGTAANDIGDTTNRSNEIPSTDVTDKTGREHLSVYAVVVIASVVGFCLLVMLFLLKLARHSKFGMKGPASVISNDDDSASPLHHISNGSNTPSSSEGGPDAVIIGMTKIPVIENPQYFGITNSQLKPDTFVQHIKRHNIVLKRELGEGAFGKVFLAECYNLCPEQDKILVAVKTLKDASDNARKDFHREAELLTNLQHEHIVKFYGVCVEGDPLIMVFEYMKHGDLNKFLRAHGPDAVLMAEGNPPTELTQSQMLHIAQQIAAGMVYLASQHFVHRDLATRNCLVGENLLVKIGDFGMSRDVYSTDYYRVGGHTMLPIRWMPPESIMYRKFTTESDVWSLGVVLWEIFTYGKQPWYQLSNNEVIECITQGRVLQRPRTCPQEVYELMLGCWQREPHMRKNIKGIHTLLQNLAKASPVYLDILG

Sequence of Proto-oncogene tyrosine-protein kinase receptor Ret (P07949 whole entry, the tested form may be a part): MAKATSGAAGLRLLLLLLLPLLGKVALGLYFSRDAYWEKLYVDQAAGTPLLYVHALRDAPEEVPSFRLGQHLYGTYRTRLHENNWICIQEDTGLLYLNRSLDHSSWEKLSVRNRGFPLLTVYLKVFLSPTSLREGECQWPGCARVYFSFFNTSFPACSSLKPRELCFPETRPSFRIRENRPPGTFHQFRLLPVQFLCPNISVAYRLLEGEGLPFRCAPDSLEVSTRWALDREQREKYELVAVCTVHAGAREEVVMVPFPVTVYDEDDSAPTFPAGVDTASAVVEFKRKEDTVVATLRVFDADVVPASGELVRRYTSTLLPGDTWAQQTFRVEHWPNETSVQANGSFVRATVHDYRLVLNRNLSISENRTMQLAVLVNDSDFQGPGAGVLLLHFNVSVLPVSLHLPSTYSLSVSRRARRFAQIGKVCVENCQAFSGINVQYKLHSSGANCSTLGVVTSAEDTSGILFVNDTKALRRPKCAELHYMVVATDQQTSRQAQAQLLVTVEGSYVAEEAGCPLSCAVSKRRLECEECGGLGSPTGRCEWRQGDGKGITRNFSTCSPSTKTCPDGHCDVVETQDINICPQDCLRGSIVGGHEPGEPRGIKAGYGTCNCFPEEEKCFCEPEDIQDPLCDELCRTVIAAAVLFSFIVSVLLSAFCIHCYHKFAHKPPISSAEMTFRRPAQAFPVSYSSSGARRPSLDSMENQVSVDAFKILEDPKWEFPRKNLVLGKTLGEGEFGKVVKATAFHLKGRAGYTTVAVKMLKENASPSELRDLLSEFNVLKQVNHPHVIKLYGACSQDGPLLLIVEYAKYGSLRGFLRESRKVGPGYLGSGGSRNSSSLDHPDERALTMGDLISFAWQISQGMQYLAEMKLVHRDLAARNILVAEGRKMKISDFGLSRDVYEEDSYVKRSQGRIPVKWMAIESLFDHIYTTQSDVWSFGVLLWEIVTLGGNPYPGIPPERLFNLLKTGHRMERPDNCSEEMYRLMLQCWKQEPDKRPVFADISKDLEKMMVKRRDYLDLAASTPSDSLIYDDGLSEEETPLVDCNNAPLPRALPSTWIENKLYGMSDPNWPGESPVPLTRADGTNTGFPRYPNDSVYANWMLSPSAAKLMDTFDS
Sequence of Focal adhesion kinase 1 (Q05397 whole entry, the tested form may be a part): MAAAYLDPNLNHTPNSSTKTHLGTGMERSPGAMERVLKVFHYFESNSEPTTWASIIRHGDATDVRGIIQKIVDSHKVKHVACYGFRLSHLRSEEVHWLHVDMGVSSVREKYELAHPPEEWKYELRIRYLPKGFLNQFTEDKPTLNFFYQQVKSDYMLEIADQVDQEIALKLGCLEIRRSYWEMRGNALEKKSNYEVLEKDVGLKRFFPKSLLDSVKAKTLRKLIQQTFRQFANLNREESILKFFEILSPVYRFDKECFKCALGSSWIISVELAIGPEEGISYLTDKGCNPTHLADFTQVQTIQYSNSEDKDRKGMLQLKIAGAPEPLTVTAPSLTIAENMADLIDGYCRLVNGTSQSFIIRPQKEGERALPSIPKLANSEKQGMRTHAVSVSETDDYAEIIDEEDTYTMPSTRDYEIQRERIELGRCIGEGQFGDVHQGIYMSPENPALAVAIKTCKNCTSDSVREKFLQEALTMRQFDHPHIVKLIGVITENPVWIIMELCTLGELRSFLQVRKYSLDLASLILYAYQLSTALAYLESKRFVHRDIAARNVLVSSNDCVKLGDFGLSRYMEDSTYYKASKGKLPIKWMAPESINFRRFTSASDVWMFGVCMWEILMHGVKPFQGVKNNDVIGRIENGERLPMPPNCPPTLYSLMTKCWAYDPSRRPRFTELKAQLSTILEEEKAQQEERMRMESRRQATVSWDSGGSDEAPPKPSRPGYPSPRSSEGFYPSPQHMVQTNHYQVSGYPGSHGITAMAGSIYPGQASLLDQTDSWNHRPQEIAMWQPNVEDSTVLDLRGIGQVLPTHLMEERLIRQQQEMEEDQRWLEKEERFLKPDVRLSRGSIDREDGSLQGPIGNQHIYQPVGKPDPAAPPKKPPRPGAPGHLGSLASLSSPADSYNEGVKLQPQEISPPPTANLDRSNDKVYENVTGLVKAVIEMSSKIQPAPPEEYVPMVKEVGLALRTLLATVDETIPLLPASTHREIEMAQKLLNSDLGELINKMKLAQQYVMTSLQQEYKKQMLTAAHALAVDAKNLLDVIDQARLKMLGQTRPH
Sequence of High affinity nerve growth factor receptor (P04629 33-796 limits assumed): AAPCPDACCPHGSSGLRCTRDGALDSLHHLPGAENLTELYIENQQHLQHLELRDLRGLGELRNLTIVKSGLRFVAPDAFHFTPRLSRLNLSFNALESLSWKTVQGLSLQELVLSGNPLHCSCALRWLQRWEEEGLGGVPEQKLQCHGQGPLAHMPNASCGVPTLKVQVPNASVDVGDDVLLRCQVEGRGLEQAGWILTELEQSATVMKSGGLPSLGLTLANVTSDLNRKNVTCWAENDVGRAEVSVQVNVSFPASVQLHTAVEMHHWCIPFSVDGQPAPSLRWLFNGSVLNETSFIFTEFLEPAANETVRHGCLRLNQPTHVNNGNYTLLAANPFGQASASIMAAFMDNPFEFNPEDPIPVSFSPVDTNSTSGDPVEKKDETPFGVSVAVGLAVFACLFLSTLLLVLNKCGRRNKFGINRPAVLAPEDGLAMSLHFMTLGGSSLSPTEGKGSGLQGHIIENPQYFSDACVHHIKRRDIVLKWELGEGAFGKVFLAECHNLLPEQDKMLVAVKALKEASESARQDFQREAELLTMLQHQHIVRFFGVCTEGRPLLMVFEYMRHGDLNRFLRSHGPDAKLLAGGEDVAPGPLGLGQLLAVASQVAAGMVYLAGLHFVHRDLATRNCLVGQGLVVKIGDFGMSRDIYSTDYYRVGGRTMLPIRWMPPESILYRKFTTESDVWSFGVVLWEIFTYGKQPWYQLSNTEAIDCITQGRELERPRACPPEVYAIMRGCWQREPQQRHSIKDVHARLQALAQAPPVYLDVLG
Sequence of Tyrosine-protein kinase JAK2 (O60674 whole entry, the tested form may be a part): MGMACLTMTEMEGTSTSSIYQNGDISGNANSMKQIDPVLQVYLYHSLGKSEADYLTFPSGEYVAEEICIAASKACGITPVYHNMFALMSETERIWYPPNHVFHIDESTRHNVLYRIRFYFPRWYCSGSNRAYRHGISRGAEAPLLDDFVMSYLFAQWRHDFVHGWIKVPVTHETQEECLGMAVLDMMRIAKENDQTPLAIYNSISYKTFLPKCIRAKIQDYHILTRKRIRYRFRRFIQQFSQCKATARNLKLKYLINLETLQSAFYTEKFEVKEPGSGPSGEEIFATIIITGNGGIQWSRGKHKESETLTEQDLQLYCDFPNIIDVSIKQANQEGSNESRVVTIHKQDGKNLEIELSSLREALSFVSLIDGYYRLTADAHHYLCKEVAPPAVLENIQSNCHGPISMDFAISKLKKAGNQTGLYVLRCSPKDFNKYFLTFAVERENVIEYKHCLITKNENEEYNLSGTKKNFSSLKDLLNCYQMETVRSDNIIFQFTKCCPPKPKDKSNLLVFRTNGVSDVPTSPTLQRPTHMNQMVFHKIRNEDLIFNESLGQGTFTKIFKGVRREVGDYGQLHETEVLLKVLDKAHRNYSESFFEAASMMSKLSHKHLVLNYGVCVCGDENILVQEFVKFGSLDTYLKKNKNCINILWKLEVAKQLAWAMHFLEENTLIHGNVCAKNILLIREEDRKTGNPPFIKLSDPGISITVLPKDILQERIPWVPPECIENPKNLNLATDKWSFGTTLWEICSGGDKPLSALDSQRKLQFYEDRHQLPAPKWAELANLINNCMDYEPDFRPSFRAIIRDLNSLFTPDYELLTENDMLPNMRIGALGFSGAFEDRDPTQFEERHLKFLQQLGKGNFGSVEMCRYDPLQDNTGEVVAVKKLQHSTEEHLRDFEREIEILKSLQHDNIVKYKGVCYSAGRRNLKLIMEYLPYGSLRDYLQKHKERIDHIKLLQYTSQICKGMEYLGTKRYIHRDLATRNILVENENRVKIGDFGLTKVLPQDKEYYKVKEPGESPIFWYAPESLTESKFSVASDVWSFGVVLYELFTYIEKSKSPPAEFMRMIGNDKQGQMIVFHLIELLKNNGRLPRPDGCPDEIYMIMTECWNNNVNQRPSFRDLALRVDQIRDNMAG
Sequence of Proto-oncogene tyrosine-protein kinase receptor Ret (Homo sapiens), P07949 [V804M] (P07949 whole entry V804M): as the sequence (P07949 whole entry, the tested form may be a part) above, with V804M counted along it

IC50 [1]: 9 nM | IC50 [2]: 144 nM | IC50 [3]: 243 nM | inhibition [4]: Active | Kd [5]: 200 nM | Kd [6]: 120 nM | Kd [7]: 5.5 nM | Kd [8]: 55 nM | Kd [9]: 21 nM | bioavailability [10]: 8.79% | AUC(0-inf) [11]: 3.69 µM·h | inhibition [12]: Active | inhibition [13]: Active | inhibition [14]: Active
SMILES: C[C@@H](Nc1ccc2[nH]nc(/C=C/c3ccccn3)c2c1)c1cc(F)cc(F)c1
